{"source": "patent US20070190539A1", "about": "“Human MLR single nucleotide polymorphisms associated with dose-dependent congestive heart failure and methods of use thereof” (Bristol-Myers Squibb Company, priority 2005, published 2007)", "experiment": "Phase II clinical trials CV168-006 and CV168-008: diagnosis of congestive heart failure in patients treated with compound A", "assay_type": "in vivo, human", "protocol": "Genomic DNA samples from patients enrolled in two Bristol-Myers Squibb Company Phase II clinical trials CV168-006 and CV168-008 trials were genotyped for 1 SNP identified in the human mineralocorticoid receptor gene (see Example 1) and evaluated for association with congestive heart failure.\n498 subjects enrolled in the CV168-006 trial and 232 subjects from the CV168-008 trial were analyzed in this study. All analyses were based on data collected up to 24 weeks, which was the duration of the short-term phase of the trials. DNA was extracted from frozen blood by a third-party (Genaissance Inc, North Carolina) using a salting-out method (Gentra Systems). All subjects gave written informed consent.\nAt the time of this analysis four individuals were diagnosed as having developed congestive heart failure. All four were in the CV168-006 trial; three were being treated with 10 mg of compound A and one with 20 mg of compound A. All SNPs that were analyzed above were also tested for association with CHF using contingency tables.\nSample. Investigators in the BMS clinical trials diagnosed dose-dependent congestive heart failure in some subjects.\nGenomic DNA samples from patients enrolled in two Bristol-Myers Squibb Company Phase II clinical trials CV168-006 and CV168-008 trials were genotyped for 1 SNP identified in the human PPAR-gamma gene (see Example 7) and evaluated for association with congestive heart failure.\nAt the time of this analysis four individuals were diagnosed as having developed congestive heart failure. All four were in the CV 168-006 trial; three were being treated with 10 mg of compound A and one with 20 mg of compound A. All SNPs that were analyzed above were also tested for association with CHF using contingency tables.\nGenomic DNA samples from patients enrolled in two Bristol-Myers Squibb Company Phase II clinical trials CV168-006 and CV168-008 trials were genotyped for 1 SNP identified in the human Adiponectin gene (see Example 13) and evaluated for association with congestive heart failure.", "data": [{"compound": "COc1ccc(OC(=O)N(CC(=O)O)Cc2ccc(OCCc3nc(-c4ccccc4)oc3C)cc2)cc1", "note": "[compound A, N-[(4-methoxyphenoxy)carbonyl]-N-[[4-[2-(5-methyl-2-phenyl-4-oxazolyl)ethoxy]phenyl]methyl]glycine]", "values": [{"measurement": "individuals who developed congestive heart failure while treated with 10 mg", "setting": "CV168-006 trial, 10 mg of compound A, data up to 24 weeks", "value": "three"}, {"measurement": "individuals who developed congestive heart failure while treated with 20 mg", "setting": "CV168-006 trial, 20 mg of compound A, data up to 24 weeks", "value": "one"}, {"measurement": "dose dependence of congestive heart failure (CHF)", "setting": "Phase II trials, patients, high doses = 10 and 20 mg arms", "value": "observed only at high doses"}, {"measurement": "individuals diagnosed as having developed congestive heart failure", "setting": "all subjects analysed (498 in CV168-006, 232 in CV168-008), data up to 24 weeks, all four cases in the CV168-006 trial", "value": "four"}]}]}
